Measured values: publication PMC5700161, “Structure of human immunoproteasome with a reversible and noncompetitive inhibitor that selectively inhibits activated lymphocytes” (Nature Communications, 2017)
“Also recorded” adds a separate entry of the source.

Tests used:
MM.1S cells = assay: Cytotoxicity, CellTiter-glo, MM.1S; format: cell-based; conditions: 72 h
Procedure: (§1) Fig. 4 Intracellular proteasome inhibition by PKS21221 and its cytotoxicity against transformed cell lines. a Karpas 1106P lymphoma cells (white and black symbols) or HepG2 cells (blue symbols) were treated with PKS21221 for 2 h at the concentrations indicated prior to incubation with substrate (Ac-ANW)2R110 for β5i (Karpas cells) or suc-LLVY-luciferin for β5 (Karpas cells and HepG2 cells). […] Cell viability was determined by CellTiter-glo. Data are means ± SEM of three to four independent experiments
(§2) We incubated MM.1S, RPMI 8226, Karpas and HepG2 cells with PKS21221 at different concentrations, and determined cell viability after 72 h (Fig. 4b).
(§3) We used Karpas 1106P B lymphoma cell line (Cat. No. 06072607, Aldrich)[15],[16],[52], HepG2 (HB-8065, ATCC), MM.1S (Cat. No. CRL-2974, ATCC). Cells were cultured at 37 °C in a humidified air/5% CO2 atmosphere in medium supplemented with 10% fetal bovine serum, except for the medium for Karpas 1106P cells which contained 20% fetal bovine serum, and 100 units per ml penicillin, 100 μg per ml streptomycin in RPMI 1640 medium. Karpas 1106P was used at 80,000 cells per well, MM.1S at 100,000 cells per well, and HepG2 at 12,000 cells per well. […] Viable cells were counted using Cell-titer Glo assay kit. EC50s were calculated using PRISM (Graphpad).

RPMI 8226 cells = assay: Cytotoxicity, CellTiter-glo, RPMI 8226; format: cell-based; conditions: 72 h
Procedure: as §1, §2, §3

β5i (i-20S) = target: T1, β5i (i-20S) (Homo sapiens, UniProt P20618+P28062); assay: Kinetics studies of modality of inhibition against β5i; format: biochemical
T1 construct: purchased Boston Biochem
Procedure: Data as in d are shown in double reciprocal plots in e, and data from f in g. […] Data are means ± SEM of three independent experiments […]
With increasing concentrations of PKS21004, both V max and K M decreased (Fig. 1d–g and Supplementary Fig. 1). […] This class thus joins a growing list of noncompetitive proteasome inhibitors[5],[30].
Supplementary Figure 11. Inhibition kinetics of PKS21221 against i-20S β5i. (A) Steady state velocities of the Ac-ANW-AMC hydrolysis at 10, 15, 25, 35 µM by i-20S β5i (0.4 nM) in the presence of PKS21221 at indicated concentrations were determined at 37 °C and plotted by RFU versus substrate concentration (A); values of KM, Ki and α were estimated by PRISM using equation V = (Vmax / (1 + I / (α*Ki))) * S / (KM * (1+ I / Ki) / (1 + I / (α*Ki)) + S); (B) Lineweaver-Burk plot of the data in (A). (C) Plot of KM versus concentrations of PKS21221 indicates a mixed type inhibition. (D) Plot of Vmax versus concentrations of PKS21221.
(1 picture or pasted object on this page, not shown here)

CD19− cells = assay: Apoptosis and viability of CD19− cells in ASC differentiation culture; format: cell-based
Procedure: (§4) The immunoproteasome plays important roles in T cell differentiation and proliferation and dendritic cell activation and maturation[14],[20],[24]. However, its role in B cell differentiation is not well understood. […] Differentiated ASCs were then exposed to PKS21221 at indicated concentrations and cell survival was determined with Annexin V and 7-aminoactinomycin D (7-AAD) at three-time points (12-h, 24-h, and 48-h after treatment). […] In addition, the cytotoxicity of PKS21221 to different cell populations in PBMC was examined and compared to the cytotoxicity of bortezomib. PBMCs were incubated with PKS21221 or bortezomib, and the viability was assessed in T cells (CD3^+), B cells (CD19^+), monocytes (CD14^+) and dendritic cells (CD3^−CD19^−CD14^−CD16^−CD11c^+HLA-DR^+), respectively (Supplementary Fig. 13b–e).
(§5) PBMCs were cultured with or without IL-2/R848 for 5 days, followed by 12-h incubation with PKS21221 at different concentrations. a Representative flow cytometry plots of cells treated with IL-2 and R848 in the presence and absence of PKS21221. […] Annexin V^+7-AAD^− cells were referred as “Early apoptosis” population, and Annexin V^+7-AAD^+ cells were referred as “Dead” population. d Percentage of early apoptotic ASCs (left) and dead ASCs (right), after 12-h incubation with PKS21221. […]

β1c = β1c (Homo sapiens, UniProt P28072); assay: IC50 against β1c of human constitutive proteasome (Z-LLE-AMC); conditions: read-out: IC50 1c - LLE (β1c); substrate Z-LLE-AMC
Procedure: (§6) IC50s of all compounds against β5i and β5c (Table 2) and against β1i, β2i, β1c, and β2c (Supplementary Table 1) were determined following reported methods[8].

β1i = β1i (Homo sapiens, UniProt P28065); assay: IC50 against β1i of human immunoproteasome (Ac-PAL-AMC); conditions: read-out: IC50 1i - PAL (β1i); substrate Ac-PAL-AMC
Procedure: as §6

PBMCs = assay: Viability of total PBMCs in ASC differentiation culture (7-AAD); format: cell-based
Procedure: as §4, §5

β2i = β2i (Homo sapiens, UniProt P40306); assay: IC50 against β2i of human immunoproteasome (Z-VLR-AMC); conditions: read-out: IC50 2i - VLR (β2i); substrate Z-VLR-AMC
Procedure: as §6

## Cc1ccc(S(=O)(=O)N[C@@H](CC(=O)NC(C)(C)C)C(=O)NCCNC(=O)c2cc(-c3ccccc3F)ccc2F)cc1 [PKS21221]
MM.1S cells
  EC50: 78 ± 30 nM
RPMI 8226 cells
  EC50: 66 ± 6 nM
β5i (i-20S)
  α for β5i (αi-20S): 0.26
β5i (i-20S); versus substrate
  modality of inhibition of β5i: noncompetitive
CD19− cells
  apoptosis of CD19− cells: no increase
  viability of CD19− cells: did not affect viability
β1c
  IC50: > 50000 nM
β1i
  IC50: > 50000 nM
PBMCs
  overall viability of PBMCs: not affected; also recorded: did not affect overall viability
β2i
  IC50: > 50000 nM
